Our source for the IC50 values is patent publication US11873303B2, “Substituted pyrazoles as type II IRAK inhibitors” (Merck Patent GmbH, priority 2018, dated 2024).

Assay [1] has as its system TLR7 induced IL-6 secretion in human mononuclear cells (PBMC's). Put plainly: TLR7 induced IL-6 in human PBMC's. The class given is cell-based. Conditions: TLR7 ligand 2 uM overnight, IL-6 AlphaLISA. The protocol:
TLR7 Induced IL-6 in Human PBMC's
Human PBMC assay was used as one of the functional assays to monitor the activity of IRAK1 and IRAK4 small molecule inhibitors on TLR7 induced IL-6 secretion in human mononuclear cells (PBMC's). Human PBMCs were prepared from buffy coats (whole blood enriched with leukocytes and platelets) obtained from healthy volunteers used either fresh or frozen were plated in assay media (RPMI+2% P/S/L-glu+10% HI-FBS) and pre-treated with compounds in DMSO/media (range of concentrations from 25 uM to 0.4 nM) or controls (0.25% DMSO) for 30 minutes at 37° C. in assay media. Following pre-treatment with IRAK1 and IRAK4 inhibitors, PBMC's were stimulated with TLR7 specific ligand (2 uM) overnight (16-18 hrs) at 37° C. After incubation supernatant was transferred to 384 well PE AlphaPlate-384 and IL-6 was quantified using Perkin Elmer IL-6 Alpha LISA kit (AL223C). Plates were read on an Envision® plate reader with Alpha Technology®.
A general note: In Alpha technology, singlet oxygen from a donor bead excites a nearby acceptor bead.

Assay [2] addresses T1, IRAK1 (human purified recombinant enzyme His-TEV-IRAK1 (194-712)) (Homo sapiens, UniProt P51617).
T1 construct: His-TEV-IRAK1 (194-712); His (N); TEV cleavage site (N)
Put plainly: IRAK1 enzymatic assay (ADP-Glo luminescence). The class given is biochemical. Conditions: human recombinant IRAK1, ATP 1 μM. The procedure: IRAK1 is a human purified recombinant enzyme (His-TEV-IRAK1 (194-712)). In this assay, IRAK1 hydrolysed ATP and autophosphorylated. Measurement of IRAK-1 inhibition was performed in 384-well format based on luminescence assay (ADP-Glo™ Kinase Assay from Promega). Purified human recombinant IRAK1 (0.3 μg/ml) and serial diluted compounds in DMSO (range of concentration from 10 μM to 0.5 nM) or controls (1% DMSO) were incubated for 15 minutes at RT in assay buffer containing 50 mM Hepes pH 7.0, Fatty acid-free BSA 0.1%, Dithiothreitol (DTT) 2 mM, MgCl2 10 mM, EGTA 0.5 mM, Triton X-100 0.01%. The kinase reaction was then initiated by the addition of ATP at a concentration of 1 μM. After 2 hours of incubation at RT, the reaction was stopped and the unconsumed ATP depleted by the addition of ADP-Glo™ Reagent according to supplier instructions. After 40 minutes of incubation at RT, the Kinase Detection Reagent was then added to the assay plate according to supplier instructions. After 20 minutes of incubation at RT, the luminescence signal was measured with a luminometer (PerkinElmer Envision or equivalent reader).

The target of assay [3] is T2, IRAK4 (human purified recombinant enzyme His-TEV-IRAK4 (1-460)) (Homo sapiens, UniProt Q9NWZ3).
T2 construct: His-TEV-IRAK4 (1-460); His (N); TEV cleavage site (N)
T2 sequence (Q9NWZ3 1-460): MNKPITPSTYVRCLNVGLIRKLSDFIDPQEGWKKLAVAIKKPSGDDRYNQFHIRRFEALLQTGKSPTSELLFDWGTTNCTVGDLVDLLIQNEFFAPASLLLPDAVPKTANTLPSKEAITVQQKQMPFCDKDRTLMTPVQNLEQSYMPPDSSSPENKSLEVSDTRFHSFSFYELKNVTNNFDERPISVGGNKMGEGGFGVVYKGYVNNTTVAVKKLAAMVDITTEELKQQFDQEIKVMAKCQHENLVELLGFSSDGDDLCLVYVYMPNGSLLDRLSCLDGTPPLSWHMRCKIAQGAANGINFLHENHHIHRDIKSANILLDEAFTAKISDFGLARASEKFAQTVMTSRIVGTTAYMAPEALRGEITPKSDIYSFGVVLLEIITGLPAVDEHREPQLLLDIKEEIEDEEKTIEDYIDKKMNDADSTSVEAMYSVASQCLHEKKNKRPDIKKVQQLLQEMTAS
The experiment in a line: IRAK4 enzymatic assay (ADP-Glo luminescence). The class given is biochemical. As to conditions: human recombinant IRAK4, ATP 2 μM, STK1-biotin peptide. The protocol:
IRAK4 is a human purified recombinant enzyme (His-TEV-IRAK4 (1-460)). In this assay, IRAK4 hydrolysed ATP, autophosphorylated and phosphorylated a Serine/Threonine generic peptidic substrate (STK: 61ST1BLC from CisBio International). Measurement of IRAK-4 inhibition was performed in 384-well format based on a luminescence assay (ADP-Glo™ Kinase Assay from Promega). Purified human recombinant IRAK4 (0.3 μg/ml) and serial diluted compounds in DMSO (range of concentration from 10 μM to 0.5 nM) or controls (1% DMSO) were incubated for 15 minutes at RT in assay buffer containing 50 mM Hepes pH 7.0, Fatty acid-free BSA 0.1%, Dithiothreitol (DTT) 2 mM, MgCl2 10 mM, EGTA 0.5 mM, Triton X-100 0.01%, MnCl2 5 mM. The kinase reaction was then initiated by the addition of ATP (2 μM) and the peptidic substrate STK1-biotin peptide (300 nM). After 2 hours of incubation at RT, the reaction was stopped and the unconsumed ATP depleted by the addition of ADP-Glo™ Reagent according to supplier instructions. After 40 minutes of incubation at RT, the Kinase Detection Reagent was then added to the assay plate according to supplier instructions. After 20 minutes of incubation at RT, the luminescence signal was measured with a plate-reading luminometer (PerkinElmer Envision or equivalent reader).
(ADP-Glo first removes unused ATP, then detects ADP through luciferase.)

T1 sequence (P51617 194-712): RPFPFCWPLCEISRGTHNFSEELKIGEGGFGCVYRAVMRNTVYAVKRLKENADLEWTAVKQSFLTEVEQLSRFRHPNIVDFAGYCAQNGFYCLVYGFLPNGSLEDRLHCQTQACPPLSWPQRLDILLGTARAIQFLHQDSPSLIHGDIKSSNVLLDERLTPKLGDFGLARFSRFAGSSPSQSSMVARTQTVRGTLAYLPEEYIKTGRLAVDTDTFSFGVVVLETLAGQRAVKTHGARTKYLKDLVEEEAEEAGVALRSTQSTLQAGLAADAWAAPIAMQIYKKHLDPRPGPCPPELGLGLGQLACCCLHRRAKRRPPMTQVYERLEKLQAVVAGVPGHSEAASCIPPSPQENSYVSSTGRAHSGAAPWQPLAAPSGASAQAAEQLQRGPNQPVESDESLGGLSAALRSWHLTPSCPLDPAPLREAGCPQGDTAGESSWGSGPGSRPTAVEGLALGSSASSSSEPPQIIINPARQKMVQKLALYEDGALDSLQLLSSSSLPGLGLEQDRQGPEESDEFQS

With `CC(C)c1ccc(-n2nc(C(C)(C)C)cc2NC(=O)Nc2ccc(-c3nn(C)c4ncnc(N)c34)cc2)cc1` [Example 1, 1-(4-{4-amino-1-methyl-1H-pyrazolo[3,4-d]pyrimidin-3-yl}phenyl)-3-{3-tert-butyl-1-[4-(propan-2-yl)phenyl]-1H-pyrazol-5-yl}urea], the IC50 is below 100 nM in assay [1], below 100 nM in assay [2] and 100 to 1000 nM in assay [3].

Turning to `Cc1ccc(-n2nc(C(C)(C)C)cc2NC(=O)Nc2ccc(-c3nn(C)c4ncnc(N)c34)c(F)c2)cc1` [Example 2, 1-[4-(4-Amino-1-methyl-1H-pyrazolo[3,4-d]pyrimidin-3-yl)-3-fluoro-phenyl]-3-(5-tert-butyl-2-p-tolyl-2H-pyrazol-3-yl)-urea], the 50% inhibitory concentration (IC50) in assay [1], in assay [2] and in assay [3] was below 100 nM in each case.

On to `CC(C)c1ccc(-n2nc(C(C)(C)C)cc2NC(=O)Nc2ccc(-c3nn(C)c4ncnc(N)c34)c(F)c2)cc1` [Example 3, 1-[4-(4-Amino-1-methyl-1H-pyrazolo[3,4-d]pyrimidin-3-yl)-3-fluoro-phenyl]-3-[5-tert-butyl-2-(4-isopropyl-phenyl)-2H-pyrazol-3-yl]-urea], for which the IC50 is below 100 nM in assay [1], below 100 nM in assay [2] and 100 to 1000 nM in assay [3].

Consider `Cc1ccc(-n2nc(C(C)(C)C)cc2NC(=O)Nc2ccc(-c3nn(C)c4ncnc(N)c34)cc2F)cc1` [Example 4, 1-[4-(4-Amino-1-methyl-1H-pyrazolo[3,4-d]pyrimidin-3-yl)-2-fluoro-phenyl]-3-(5-tert-butyl-2-p-tolyl-2H-pyrazol-3-yl)-urea], for which the IC50 in assay [1], in assay [2] and in assay [3] was below 100 nM in each case.

Consider `Cc1ccc(-n2nc(C(C)(C)C)cc2NC(=O)Nc2ccc(-c3nn(C)c4ncnc(N)c34)cc2Cl)cc1` [Example 5, 1-[4-(4-Amino-1-methyl-1H-pyrazolo[3,4-d]pyrimidin-3-yl)-2-chloro-phenyl]-3-(5-tert-butyl-2-p-tolyl-2H-pyrazol-3-yl)-urea], for which the IC50 in assay [1], in assay [2] and in assay [3] was below 100 nM each time.

Consider `Cc1ccc(-n2nc(C(C)(C)C)cc2NC(=O)Nc2ccc(-c3csc4ncnc(N)c34)c(F)c2)cc1` [Example 6, 1-[4-(4-Amino-thieno[2,3-d]pyrimidin-5-yl)-3-fluoro-phenyl]-3-(5-tert-butyl-2-p-tolyl-2H-pyrazol-3-yl)-urea], for which the IC50 in assay [1] was below 100 nM; in assay [2], below 100 nM; in assay [3], 100 to 1000 nM.

Consider `Cc1ccc(-n2nc(C(C)(C)C)cc2NC(=O)Nc2ccc(-c3csc4ncnc(N)c34)cc2F)cc1` [Example 7, 1-[4-(4-Amino-thieno[2,3-d]pyrimidin-5-yl)-2-fluoro-phenyl]-3-(5-tert-butyl-2-p-tolyl-2H-pyrazol-3-yl)-urea], for which the IC50 in assay [1], in assay [2] and in assay [3] was below 100 nM each time.

With `Cc1ccc(-n2nc(C(C)(C)C)cc2NC(=O)Nc2ccc(-c3nn(C)c4ncnc(N)c34)c(Cl)c2)cc1` [Example 8, 1-[4-(4-Amino-1-methyl-1H-pyrazolo[3,4-d]pyrimidin-3-yl)-3-chloro-phenyl]-3-(5-tert-butyl-2-p-tolyl-2H-pyrazol-3-yl)-urea], the 50% inhibitory concentration (IC50) in assay [1], in assay [2] and in assay [3] was below 100 nM in each case.

Consider `CC(C)c1ccc(-n2nc(C(C)(C)C)cc2NC(=O)Nc2ccc(-c3nn(C)c4ncnc(N)c34)cc2F)cc1` [Example 9, 1-(4-{4-amino-1-methyl-1H-pyrazolo[3,4-d]pyrimidin-3-yl}-2-fluorophenyl)-3-{3-tert-butyl-1-[4-(propan-2-yl)phenyl]-1H-pyrazol-5-yl}urea], for which the IC50 in assay [1], in assay [2] and in assay [3] was below 100 nM throughout.

`Cc1ccc(-n2nc(C(C)(C)C)cc2NC(=O)Nc2ccc(-c3csc4ncnc(N)c34)c(Cl)c2)cc1` [Example 10, 1-[4-(4-Amino-thieno[2,3-d]pyrimidin-5-yl)-3-chloro-phenyl]-3-(5-tert-butyl-2-p-tolyl-2H-pyrazol-3-yl)-urea]: the results for the IC50 in assay [1], in assay [2] and in assay [3] were below 100 nM, below 100 nM and 100 to 1000 nM, respectively.

Regarding `Cc1ccc(-n2nc(C(C)(C)C)cc2NC(=O)Nc2ccc(-c3csc4ncnc(N)c34)cc2Cl)cc1` [Example 11, 1-[4-(4-Amino-thieno[2,3-d]pyrimidin-5-yl)-2-chloro-phenyl]-3-(5-tert-butyl-2-p-tolyl-2H-pyrazol-3-yl)-urea], the IC50 in assay [1] was below 100 nM; in assay [2], below 100 nM; in assay [3], 1000 to 5000 nM.

Consider `Cc1ccc(-n2nc(C(C)(C)C)cc2NC(=O)Nc2ccc(-c3csc4ncnc(N)c34)cc2)cc1` [Example 12, 1-[4-(4-Amino-thieno[2,3-d]pyrimidin-5-yl)-phenyl]-3-(5-tert-butyl-2-p-tolyl-2H-pyrazol-3-yl)-urea], for which the IC50 was below 100 nM in assay [1], below 100 nM in assay [2] and 100 to 1000 nM in assay [3].

`Cc1ccc(-n2nc(C(F)(F)F)cc2NC(=O)Nc2ccc(-c3nn(C)c4ncnc(N)c34)c(F)c2)cc1` [Example 13, 1-[4-(4-Amino-1-methyl-1H-pyrazolo[3,4-d]pyrimidin-3-yl)-3-fluoro-phenyl]-3-(2-p-tolyl-5-trifluoromethyl-2H-pyrazol-3-yl)-urea]: the IC50 in assay [1] was 100 to 1000 nM; in assay [2], 100 to 1000 nM; in assay [3], above 5000 nM.

For the compound `Cc1ccc(-n2nc(C(C)(C)C)cc2NC(=O)NC2CC=C(c3cn(C)c4ncnc(N)c34)CC2)cc1` (stereo not drawn) [Example 25, 1-[4-(4-Amino-7-methyl-7H-pyrrolo[2,3-d]pyrimidin-5-yl)-cyclohex-3-enyl]-3-(5-tert-butyl-2-p-tolyl-2H-pyrazol-3-yl)-urea], the IC50 in assay [2] and in assay [3] was below 100 nM throughout.

`Cn1nc(-c2ccc(NC(=O)Nc3cc(C(C)(C)C)nn3-c3ccc(C#N)cc3)c(Cl)c2)c2c(N)ncnc21` [Example 28, 1-(4-{4-amino-1-methyl-1H-pyrazolo[3,4-d]pyrimidin-3-yl}-2-chlorophenyl)-3-[3-tert-butyl-1-(4-cyanophenyl)-1H-pyrazol-5-yl]urea]: the IC50 is below 100 nM in assay [2] and 100 to 1000 nM in assay [3].

Turning to `Cc1ccc(-n2nc(C(C)(C)C)cc2NC(=O)Nc2ccc(-c3nn(C)c4ncnc(N)c34)cc2Cl)cc1F` [Example 29, 1-[4-(4-Amino-1-methyl-1H-pyrazolo[3,4-d]pyrimidin-3-yl)-2-chloro-phenyl]-3-[5-tert-butyl-2-(3-fluoro-4-methyl-phenyl)-2H-pyrazol-3-yl]-urea], the 50% inhibitory concentration (IC50) was below 100 nM in assay [2] and 100 to 1000 nM in assay [3].

As usually defined, the IC50 is the concentration needed to halve the response being measured.
